By IC50 is commonly meant the concentration at which inhibition is half-maximal.

The target of assay [1] is MAP4K4 (Homo sapiens, UniProt O95819). In words: MAP4K4 kinase assay (in-house). Format: biochemical. From the text:
Signaling pathways mediating anticancer activity. […] We established the MAP4K4 kinase assay in-house and confirmed that the compounds are indeed potent MAP4K4 inhibitors.

Assay [2] concerns DU-145. In words: Prostate cancer cell proliferation assay. It is filed as cell-based. The settings on record: Homo sapiens; DU-145, 72 hours; read-out: IC50 against prostate cancer cell lines. The source says:
(§1) The dose-response curves of cell growth inhibition were consistent.
(§2) Cell proliferation assays.

In assay [3] the test system is LNCaP. In words: Prostate cancer cell proliferation assay. Format: cell-based. As to conditions: Homo sapiens, 72 hours, read-out: IC50 against prostate cancer cell lines.
Source text: as §1, §2

Assay [4] deals with PC-3. Nature of the assay: Prostate cancer cell proliferation assay. Format: cell-based. As to conditions: Homo sapiens; PC-3, 72 hours; read-out: IC50 against prostate cancer cell lines.
Source text: as §1, §2

Assay [5] concerns HS578T. Nature of the assay: Breast cancer cell line growth inhibition. The settings on record: Homo sapiens, Hs-578T, triple negative, read-out: IC50 against breast cancer cell lines. It is filed as cell-based. From the text: (§3) Generally, their potency is positively correlated with MAP4K4 expression in cancer cell lines.
Assay [6] relates to BT549. Nature of the assay: Breast cancer cell line growth inhibition. It is filed as cell-based. As to conditions: Homo sapiens, BT-549; BT549, triple negative; read-out: IC50 against breast cancer cell lines.
Source text: as §3

In assay [7] the test system is T47D. Nature of the assay: Breast cancer cell line growth inhibition. As to conditions: Homo sapiens, ER (+), read-out: IC50 against breast cancer cell lines. Format: cell-based.
Source text: as §3

Assay [8] concerns MCF-7. In words: Breast cancer cell line growth inhibition. It is filed as cell-based. The settings on record: Homo sapiens, MCF7; MCF-7, ER (+); read-out: IC50 against breast cancer cell lines.
Source text: as §3

For assay [9], the system named is MDA-MB-231. Nature of the assay: Breast cancer cell line growth inhibition. It is filed as cell-based. The settings on record: Homo sapiens; MDA-MB-231, triple negative; read-out: IC50 against breast cancer cell lines.
Source text: as §3

MAP4K4, sequence (O95819 whole entry): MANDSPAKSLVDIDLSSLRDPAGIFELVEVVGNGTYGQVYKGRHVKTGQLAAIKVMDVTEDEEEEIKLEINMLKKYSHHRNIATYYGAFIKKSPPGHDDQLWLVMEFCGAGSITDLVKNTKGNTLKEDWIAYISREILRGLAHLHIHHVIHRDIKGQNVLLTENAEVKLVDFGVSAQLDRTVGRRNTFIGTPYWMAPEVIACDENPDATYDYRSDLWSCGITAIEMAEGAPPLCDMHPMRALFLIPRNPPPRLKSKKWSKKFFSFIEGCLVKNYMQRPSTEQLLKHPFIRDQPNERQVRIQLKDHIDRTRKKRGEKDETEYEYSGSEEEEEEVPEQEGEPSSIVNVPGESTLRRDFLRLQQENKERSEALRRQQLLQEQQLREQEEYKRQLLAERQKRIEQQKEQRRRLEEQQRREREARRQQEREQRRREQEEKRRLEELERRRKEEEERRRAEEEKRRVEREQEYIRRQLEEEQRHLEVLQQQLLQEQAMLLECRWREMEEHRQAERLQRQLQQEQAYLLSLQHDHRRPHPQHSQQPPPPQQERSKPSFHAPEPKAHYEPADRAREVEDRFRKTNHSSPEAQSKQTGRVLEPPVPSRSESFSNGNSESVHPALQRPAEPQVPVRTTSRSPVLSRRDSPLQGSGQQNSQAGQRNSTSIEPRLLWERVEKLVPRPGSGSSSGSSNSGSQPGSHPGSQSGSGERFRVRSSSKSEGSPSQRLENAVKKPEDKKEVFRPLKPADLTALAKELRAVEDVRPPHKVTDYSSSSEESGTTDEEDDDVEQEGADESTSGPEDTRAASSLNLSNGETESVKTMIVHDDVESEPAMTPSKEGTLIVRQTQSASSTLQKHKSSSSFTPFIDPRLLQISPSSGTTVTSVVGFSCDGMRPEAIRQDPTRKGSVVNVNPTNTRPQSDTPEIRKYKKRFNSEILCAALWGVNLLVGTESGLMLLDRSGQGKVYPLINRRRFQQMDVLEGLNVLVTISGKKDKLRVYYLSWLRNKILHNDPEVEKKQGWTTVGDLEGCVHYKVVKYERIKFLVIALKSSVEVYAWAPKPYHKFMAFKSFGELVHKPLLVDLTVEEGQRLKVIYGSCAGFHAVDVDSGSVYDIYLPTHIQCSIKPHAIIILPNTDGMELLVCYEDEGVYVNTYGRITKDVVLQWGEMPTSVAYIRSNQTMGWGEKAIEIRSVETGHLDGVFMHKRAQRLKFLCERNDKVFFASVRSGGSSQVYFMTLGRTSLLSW

With `COc1ccc2[nH]c(C(=O)c3ccc4[nH]cc(C)c4c3)cc2c1` [Cmpd 4, (5-methoxy-1H-indol-2-yl)(3-methyl-1H-indol-5-yl)methanone], it took 380 nM to reach half-maximal inhibition in assay [1] (IC50).

Consider `COc1ccc2[nH]c(C(=O)c3ccc4[nH]ccc4c3)c(C)c2c1` [Cmpd 5, (1H-indol-5-yl)(5-methoxy-3-methyl-1H-indol-2-yl)methanone], for which half-maximal inhibition in assay [1] (IC50) required 300 nM.

For `COc1ccc2[nH]c(C(=O)c3ccc4[nH]cc(Cl)c4c3)cc2c1` [Cmpd 9, (3-chloro-1H-indol-5-yl)(5-methoxy-1H-indol-2-yl)methanone], 1700 nM corresponded to half-maximal inhibition in assay [1] (IC50).

In turn, `Cc1c[nH]c2ccc(C(=O)c3cc4cc(O)ccc4[nH]3)cc12` [Cmpd 12, (5-hydroxy-1H-indol-2-yl)(3-methyl-1H-indol-5-yl)methanone] displayed an IC50 in assay [1] of 1000 nM.

For `COc1cc2cc(C(=O)c3ccc4[nH]ccc4c3)[nH]c2cc1OC` [Cmpd 15, (5,6-dimethoxy-1H-indol-2-yl)(1H-indol-5-yl)methanone], the IC50 in assay [2] was found to be 35 nM; in [3] it was 21 nM; in assay [4] it was 17 nM; in assay [5] it was 16 nM; in assay [6], 17 nM; in [7], 30 nM. In addition, the IC50 in assay [8] is 123 nM; in assay [9], 21 nM.

For `COc1ccc2[nH]c(C(=O)c3ccc4[nH]ncc4c3)cc2c1` [Cmpd 17, (1H-indazol-5-yl)(5-methoxy-1H-indol-2-yl)methanone], the IC50 in assay [1] amounted to 260 nM; in [2], 14 nM; in [3], 9 nM; in assay [4] it was 6 nM; in assay [5], 10 nM; in assay [6], 9 nM. Moreover, the IC50 in [7] came to 17 nM; in assay [8], 53 nM; in assay [9], 10 nM.

For `CCc1n[nH]c2ccc(C(=O)c3cc4cc(OC)ccc4[nH]3)cc12` [Cmpd 19, (3-ethyl-1H-indazol-5-yl)(5-methoxy-1H-indol-2-yl)methanone], the IC50 in assay [1] worked out at 9 nM.

Turning to `COc1ccc2[nH]c(C(=O)c3ccc4[nH]nc(Cl)c4c3)cc2c1` [Cmpd 20, (3-chloro-1H-indazol-5-yl)(5-methoxy-1H-indol-2-yl)methanone], the IC50 in assay [1] is 310 nM.

For the compound `COc1ccc2[nH]c(C(=O)c3ccc4[nH]nc(F)c4c3)cc2c1` [Cmpd 21, (3-fluoro-1H-indazol-5-yl)(5-methoxy-1H-indol-2-yl)methanone], it took 100 nM to reach half-maximal inhibition in [1] (IC50).

`COc1ccc2[nH]c(C(=O)c3ccc4[nH]nc(CN5CCOCC5)c4c3)cc2c1` [Cmpd 22, (5-methoxy-1H-indol-2-yl)(3-(morpholinomethyl)-1H-indazol-5-yl)methanone] came in with an IC50 in assay [1] of 21000 nM.

Regarding `COc1ccc2[nH]c(C(=O)c3ccc4[nH]ncc4c3)c(Cl)c2c1` [Cmpd 23, (3-chloro-5-methoxy-1H-indol-2-yl)(1H-indazol-5-yl)methanone], the IC50 in assay [1] worked out at 410 nM; in [2], 53 nM; in assay [3], 28 nM; in assay [4], 20 nM; in assay [5] it was 29 nM; in assay [6], 23 nM. The IC50 was found to be 44 nM in assay [7], 114 nM in assay [8] and 28 nM in assay [9].

`COc1ccc2[nH]c(C(=O)c3ccc4[nH]ncc4c3)cc2c1Cl` [Cmpd 24, (4-chloro-5-methoxy-1H-indol-2-yl)(1H-indazol-5-yl)methanone]: the IC50 in assay [1] came to 12000 nM.

In the case of `COc1cccc2cc(C(=O)c3ccc4[nH]nc(C)c4c3)[nH]c12` [Cmpd 28, (7-methoxy-1H-indol-2-yl)(3-methyl-1H-indazol-5-yl)methanone], the half-maximal inhibitory concentration (IC50) in [1] was determined as 650 nM.

Take `COc1cccc2[nH]c(C(=O)c3ccc4[nH]nc(C)c4c3)cc12` [Cmpd 29, (4-methoxy-1H-indol-2-yl)(3-methyl-1H-indazol-5-yl)methanone]: in assay [1], the IC50 was found to be 650 nM.

As to `COc1cc2cc(C(=O)c3ccc4[nH]nc(C)c4c3)[nH]c2cn1` [Cmpd 31, (5-methoxy-1H-pyrrolo[2,3-c]pyridin-2-yl)(3-methyl-1H-indazol-5-yl)methanone], the midpoint of inhibition in assay [1], the IC50, lay at 13 nM.

`COc1ccc2[nH]c(C(=O)c3cnc4[nH]ccc4c3)cc2c1` [Cmpd 33, (5-methoxy-1H-indol-2-yl)(1H-pyrrolo[2,3-b]pyridin-5-yl)methanone]: the IC50 in [1] came out at 46 nM.

For `COc1ccc2[nH]c(C(=O)c3ccc4[nH]c(C(F)(F)F)nc4c3)cc2c1` [Cmpd 35, (5-methoxy-1H-indol-2-yl)(2-(trifluoromethyl)-1H-benzo[d]imidazol-5-yl)methanone], in assay [1], half-maximal inhibition (IC50) required 7500 nM.

Regarding `COc1ccc2[nH]c(C(=O)c3ccc4[nH]nnc4c3)cc2c1` [Cmpd 36, (1H-benzo[d][1,2,3]triazol-5-yl)(5-methoxy-1H-indol-2-yl)methanone], in assay [1], the IC50 stood at 570 nM.

On to `CC(=O)O[C@H]1C(=O)[C@@]2(C)[C@H]([C@H](OC(=O)c3ccccc3)[C@]3(O)C[C@H](OC(=O)[C@H](O)[C@@H](NC(=O)c4ccccc4)c4ccccc4)C(C)=C1C3(C)C)[C@]1(OC(C)=O)CO[C@@H]1C[C@@H]2O` [Paclitaxel, reference compound], for which the IC50 amounted to 148 nM in [5]; 151 nM in assay [6]; 152 nM in [7]; 156 nM in [8]; 153 nM in assay [9].

The record behind these values is patent US10000451B2, “MAP4K4 (HGK) inhibitors” (SRI INTERNATIONAL, priority 2015, dated 2018).
